From patent US10238670B2, “9-aminomethyl minocycline compounds and methods of use thereof in urinary tract infection (UTI) treatment” (Paratek Pharmaceuticals, Inc., priority 2016, dated 2019)

Experiments:
Assay in all cases: In vitro MIC, 2010 surveillance isolates
E. coli ESBL− = format: cell-based, Escherichia coli
MR CoNS = format: cell-based, Coagulase-Negative Staphylococcus
Enterobacter spp = format: cell-based
MRSA = format: cell-based
Acinetobacter spp = format: cell-based
K. pneumoniae ESBL+ = format: cell-based, Klebsiella pneumoniae
K. pneumoniae ESBL− = format: cell-based, Klebsiella pneumoniae
E. coli ESBL+ = format: cell-based, Escherichia coli
K. oxytoca = format: cell-based
MSSA = format: cell-based
A. baumanii = format: cell-based
E. cloacae CeftazS = format: cell-based
MS CoNS = format: cell-based, Coagulase-Negative Staphylococcus
E. cloacae CeftazR = format: cell-based

Substance: Gentamicin
- % R (resistance) (E. coli ESBL−; Asia/Pac, Eucast breakpoints): 16.3%
- MIC90 (E. coli ESBL−; Asia/Pac, N=282): > 8 µg/mL
- % R (resistance) (E. coli ESBL−; Europe, Eucast breakpoints): 7.4%
- MIC90 (E. coli ESBL−; Europe, N=1533): 2 µg/mL
- % R (resistance) (E. coli ESBL−; L. Amer, CLSI breakpoints): 9%
- MIC90 (E. coli ESBL−; L. Amer, N=389): 2 µg/mL
- % R (resistance) (E. coli ESBL−; N America, CLSI breakpoints): 7.7%
- MIC90 (E. coli ESBL−; N America, N=1172): 2 µg/mL
- % R (resistance) (MR CoNS; Asia/Pac, Eucast breakpoints): 72.7%
- MIC90 (MR CoNS; Asia/Pac, N=77): > 8 µg/mL
- % R (resistance) (MR CoNS; Europe, Eucast breakpoints): 56.2%
- MIC90 (MR CoNS; Europe, N=510): > 8 µg/mL
- % R (resistance) (MR CoNS; L. Amer, CLSI breakpoints): 33.2%
- MIC90 (MR CoNS; L. Amer, N=301): > 8 µg/mL
- % R (resistance) (MR CoNS; N America, CLSI breakpoints): 22.6%
- MIC90 (MR CoNS; N America, N=461): > 8 µg/mL
- % R (resistance) (Enterobacter spp; Asia/Pac, Eucast breakpoints): 7.7%
- MIC90 (Enterobacter spp; Asia/Pac, N=52): ≤ 1 µg/mL
- % R (resistance) (Enterobacter spp; Europe, Eucast breakpoints): 4.9%
- MIC90 (Enterobacter spp; Europe, N=82): ≤ 1 µg/mL
- % R (resistance) (Enterobacter spp; L. Amer, CLSI breakpoints): 9.5%
- MIC90 (Enterobacter spp; L. Amer, N=42): 2 µg/mL
- MIC90 (Enterobacter spp; N America, N=101): ≤1 (1)
- % R (resistance) (MRSA; Asia/Pac, Eucast breakpoints): 58.6%
- MIC90 (MRSA; Asia/Pac, N=428): > 8 µg/mL
- % R (resistance) (MRSA; Europe, Eucast breakpoints): 23.1%
- MIC90 (MRSA; Europe, N=750): > 8 µg/mL
- % R (resistance) (MRSA; L. Amer, CLSI breakpoints): 35.4%
- MIC90 (MRSA; L. Amer, N=506): > 8 µg/mL
- % R (resistance) (MRSA; N America, CLSI breakpoints): 3.7%
- MIC90 (MRSA; N America, N=2508): ≤ 1 µg/mL
- % R (resistance) (Acinetobacter spp; Asia/Pac, Eucast breakpoints): 33.3%
- % R (resistance) (Acinetobacter spp; Europe, Eucast breakpoints): 32.6%
- MIC90 (Acinetobacter spp; Europe, N=43): > 8 µg/mL
- % R (resistance) (Acinetobacter spp; L. Amer, CLSI breakpoints): 22.2%
- % R (resistance) (Acinetobacter spp; N America, CLSI breakpoints): 14.3%
- MIC90 (Acinetobacter spp; N America, N=42): > 8 µg/mL
- % R (resistance) (K. pneumoniae ESBL+; Asia/Pac, Eucast breakpoints): 58.1%
- MIC90 (K. pneumoniae ESBL+; Asia/Pac, N=124): > 8 µg/mL
- % R (resistance) (K. pneumoniae ESBL+; Europe, Eucast breakpoints): 58.3%
- MIC90 (K. pneumoniae ESBL+; Europe, N=151): > 8 µg/mL
- % R (resistance) (K. pneumoniae ESBL+; L. Amer, CLSI breakpoints): 56.9%
- MIC90 (K. pneumoniae ESBL+; L. Amer, N=209): > 8 µg/mL
- % R (resistance) (K. pneumoniae ESBL+; N America, CLSI breakpoints): 46.3%
- MIC90 (K. pneumoniae ESBL+; N America, N=108): > 8 µg/mL
- % R (resistance) (K. pneumoniae ESBL−; Asia/Pac, Eucast breakpoints): 3.7%
- MIC90 (K. pneumoniae ESBL−; Asia/Pac, N=189): ≤ 1 µg/mL
- % R (resistance) (K. pneumoniae ESBL−; Europe, Eucast breakpoints): 2.2%
- MIC90 (K. pneumoniae ESBL−; Europe, N=361): ≤ 1 µg/mL
- % R (resistance) (K. pneumoniae ESBL−; L. Amer, CLSI breakpoints): 1.3%
- MIC90 (K. pneumoniae ESBL−; L. Amer, N=160): ≤ 1 µg/mL
- % R (resistance) (K. pneumoniae ESBL−; N America, CLSI breakpoints): 1.2%
- MIC90 (K. pneumoniae ESBL−; N America, N=671): ≤ 1 µg/mL
- % R (resistance) (E. coli ESBL+; Asia/Pac, Eucast breakpoints): 58.9%
- MIC90 (E. coli ESBL+; Asia/Pac, N=219): > 8 µg/mL
- % R (resistance) (E. coli ESBL+; Europe, Eucast breakpoints): 40.5%
- MIC90 (E. coli ESBL+; Europe, N=274): > 8 µg/mL
- % R (resistance) (E. coli ESBL+; L. Amer, CLSI breakpoints): 39.3%
- MIC90 (E. coli ESBL+; L. Amer, N=168): > 8 µg/mL
- % R (resistance) (E. coli ESBL+; N America, CLSI breakpoints): 26.1%
- MIC90 (E. coli ESBL+; N America, N=134): > 8 µg/mL
- % R (resistance) (K. oxytoca; Asia/Pac, Eucast breakpoints): 17.6%
- MIC90 (K. oxytoca; Asia/Pac, N=17): > 8 µg/mL
- % R (resistance) (K. oxytoca; Europe, Eucast breakpoints): 8.2%
- MIC90 (K. oxytoca; Europe, N=158): ≤ 1 µg/mL
- % R (resistance) (K. oxytoca; L. Amer, CLSI breakpoints): 12%
- MIC90 (K. oxytoca; L. Amer, N=25): > 8 µg/mL
- % R (resistance) (K. oxytoca; N America, CLSI breakpoints): 2.3%
- MIC90 (K. oxytoca; N America, N=177): ≤ 1 µg/mL
- % R (resistance) (MSSA; Asia/Pac, Eucast breakpoints): 8.4%
- MIC90 (MSSA; Asia/Pac, N=641): ≤ 1 µg/mL
- % R (resistance) (MSSA; Europe, Eucast breakpoints): 2.7%
- MIC90 (MSSA; Europe, N=2109): ≤ 1 µg/mL
- % R (resistance) (MSSA; L. Amer, CLSI breakpoints): 1.9%
- MIC90 (MSSA; L. Amer, N=590): ≤ 1 µg/mL
- % R (resistance) (MSSA; N America, CLSI breakpoints): 0.7%
- MIC90 (MSSA; N America, N=2373): ≤ 1 µg/mL
- % R (resistance) (A. baumanii; Asia/Pac, Eucast breakpoints): 80%
- MIC90 (A. baumanii; Asia/Pac, N=275): > 8 µg/mL
- % R (resistance) (A. baumanii; Europe, Eucast breakpoints): 61.4%
- MIC90 (A. baumanii; Europe, N=145): > 8 µg/mL
- % R (resistance) (A. baumanii; L. Amer, CLSI breakpoints): 52.4%
- MIC90 (A. baumanii; L. Amer, N=275): > 8 µg/mL
- % R (resistance) (A. baumanii; N America, CLSI breakpoints): 57.8%
- MIC90 (A. baumanii; N America, N=154): > 8 µg/mL
- % R (resistance) (E. cloacae CeftazS; Asia/Pac, Eucast breakpoints): 6%
- MIC90 (E. cloacae CeftazS; Asia/Pac, N=100): ≤ 1 µg/mL
- % R (resistance) (E. cloacae CeftazS; Europe, Eucast breakpoints): 1.1%
- MIC90 (E. cloacae CeftazS; Europe, N=183): ≤ 1 µg/mL
- % R (resistance) (E. cloacae CeftazS; L. Amer, CLSI breakpoints): 12.3%
- MIC90 (E. cloacae CeftazS; L. Amer, N=57): > 8 µg/mL
- % R (resistance) (E. cloacae CeftazS; N America, CLSI breakpoints): 0%
- MIC90 (E. cloacae CeftazS; N America, N=210): ≤ 1 µg/mL
- % R (resistance) (MS CoNS; Asia/Pac, Eucast breakpoints): 33.3%
- MIC90 (MS CoNS; Asia/Pac, N=18): 4 µg/mL
- % R (resistance) (MS CoNS; Europe, Eucast breakpoints): 9.7%
- MIC90 (MS CoNS; Europe, N=185): ≤ 1 µg/mL
- % R (resistance) (MS CoNS; L. Amer, CLSI breakpoints): 7.5%
- MIC90 (MS CoNS; L. Amer, N=67): 8 µg/mL
- % R (resistance) (MS CoNS; N America, CLSI breakpoints): 2.1%
- MIC90 (MS CoNS; N America, N=191): ≤ 1 µg/mL
- % R (resistance) (E. cloacae CeftazR; Asia/Pac, Eucast breakpoints): 39.7%
- MIC90 (E. cloacae CeftazR; Asia/Pac, N=63): > 8 µg/mL
- % R (resistance) (E. cloacae CeftazR; Europe, Eucast breakpoints): 43.1%
- MIC90 (E. cloacae CeftazR; Europe, N=72): > 8 µg/mL
- % R (resistance) (E. cloacae CeftazR; L. Amer, CLSI breakpoints): 38.1%
- MIC90 (E. cloacae CeftazR; L. Amer, N=42): > 8 µg/mL
- % R (resistance) (E. cloacae CeftazR; N America, CLSI breakpoints): 20.8%
- MIC90 (E. cloacae CeftazR; N America, N=77): > 8 µg/mL
